Test results taken from publication PMC2782746 (Bioorganic & medicinal chemistry, 2008).
Entries after “also recorded” stand apart in the source; their conditions may differ.

Columns and labels:
[1] = target: T1, G. gallus AIR carboxylase (Gallus gallus, UniProt P38024); conditions: cited from earlier work
T1 sequence (P38024 1-426): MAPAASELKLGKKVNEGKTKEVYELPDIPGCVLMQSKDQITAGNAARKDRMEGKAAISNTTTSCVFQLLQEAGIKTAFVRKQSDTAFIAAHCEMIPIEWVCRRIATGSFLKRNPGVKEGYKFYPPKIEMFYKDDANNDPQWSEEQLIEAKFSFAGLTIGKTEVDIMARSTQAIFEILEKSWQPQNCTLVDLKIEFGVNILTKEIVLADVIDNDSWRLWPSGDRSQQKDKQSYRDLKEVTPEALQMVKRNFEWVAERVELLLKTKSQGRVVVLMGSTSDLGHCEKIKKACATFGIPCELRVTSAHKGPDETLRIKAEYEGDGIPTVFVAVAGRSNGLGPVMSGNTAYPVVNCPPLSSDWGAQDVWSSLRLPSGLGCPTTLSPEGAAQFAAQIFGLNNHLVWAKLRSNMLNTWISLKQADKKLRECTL

[2] = test system: N^5-CAIR mutase; conditions: fungal and bacterial N^5-CAIR mutase; cited from earlier work
[3] = target: T1, G. gallus AIR carboxylase; assay: Inhibition of AIR carboxylase, CAIR decarboxylation assay; type: biochemical, G. gallus (chicken)
[4] = target: T1, G. gallus AIR carboxylase; assay: Test as alternative substrates for AIR carboxylase; type: biochemical; conditions: UV and HPLC analysis

Nc1c([N+](=O)[O-])ncn1[C@@H]1O[C@H](COP(=O)(O)O)[C@@H](O)[C@H]1O [Compound 3, 4-nitro-5-aminoimidazole ribonucleotide]
fold tighter affinity for the enzyme than CAIR ([1]; compared with CAIR): 10,000 fold
type of inhibition / kinetics ([1]; listed as NAIR): slow, tight binding inhibitor; also recorded: slow, tight-binding kinetics
type of inhibition [2]: steady-state competitive inhibitor

Nc1c(C(=O)O)cnn1[C@@H]1O[C@H](COP(=O)(O)O)[C@@H](O)[C@H]1O [Compound 8, 5-Amino-1-(β-D-ribofuranosyl)pyrazole-4-carboxylate 5′-phosphate]
fold difference in binding affinity, CAIR into CAPzR ([3]; compared to CAIR): 3 fold
binding affinity relative to CAIR ([3]; in words): greater affinity than CAIR

Nc1c(C(=O)O)nnn1[C@@H]1O[C@H](COP(=O)(O)O)[C@@H](O)[C@H]1O [Compound 10, 5-Amino-1-(β-D-ribofuranosyl)-1,2,3-triazole-4-carboxylate 5′-phosphate]
alternative substrate for the enzyme [4]: neither compound is an alternative substrate
